This is an account of results in patent publication US8633182B2, “Indanyloxyphenylcyclopropanecarboxylic acids” (Boehringer Ingelheim International GmbH, priority 2012, dated 2014).

For the experiment, the target named is human GPR40 receptor (Homo sapiens, UniProt O14842). The experiment can be described thus: IP1 accumulation measurements using the IPOne assay system in 1321N1 cells stably expressing human GPR40 receptor. The experiment is classed as cell-based. As to conditions: IP1 accumulation (HTRF), 1321N1 cells stably expressing human GPR40, 1 hour stimulation at 37° C. Here is the method: IP1 accumulation measurements using the IPOne assay system—1321N1 cells stably expressing human GPR40 receptor (Euroscreen, Belgium) are seeded 24 h before the assay in black clear-bottom collagen-coated or white 384-well plates in culture medium containing 10% FCS, 1% Na-Pyruvate and 400 μg/mL G418. IP1 is assayed according to the Manufacturer's description (Cisbio Bioassays, France). In brief, the assay is started by substitution of the culture medium by stimulation buffer (Hepes 10 mM, CaCl2 1 mM, MgCl2 0.5 mM, KCl 4.2 mM, NaCl 146 mM and glucose 5.5 mM, pH 7.4) without LiCl or with […]. Cells are stimulated for 1 hour at 37° C., 5 or 10% CO2 by addition of the compounds that are diluted in stimulation buffer containing LiCl yielding a final LiCl concentration of 50 mM. Assays are stopped by adding HTRF-conjugates (IP1-d2 and Anti-IP1 cryptate Tb) and lysis buffer, provided by the manufacturer. After an incubation time of 1 hour at room temperature plates are measured using an EnVision™, Perkin Elmer. The obtained fluorescence ratios at […] are then used to calculate the pEC50 values using GraphPad Prism 5 (Graphpad Software Inc, USA) or Assay Explorer 3.3 Software (Accelrys, Inc.) by interpolation using an IP1 reference curve and subsequent sigmoidal curve fitting allowing for a variable hill slope.
human GPR40 receptor, sequence (O14842 whole entry): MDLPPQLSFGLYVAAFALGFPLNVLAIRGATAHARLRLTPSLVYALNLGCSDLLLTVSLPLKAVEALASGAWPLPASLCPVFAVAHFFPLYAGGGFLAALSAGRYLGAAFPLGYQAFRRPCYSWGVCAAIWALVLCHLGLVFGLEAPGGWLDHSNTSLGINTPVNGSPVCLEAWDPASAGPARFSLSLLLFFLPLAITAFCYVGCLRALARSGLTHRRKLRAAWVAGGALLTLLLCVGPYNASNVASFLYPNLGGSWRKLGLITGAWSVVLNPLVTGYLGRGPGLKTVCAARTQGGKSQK
A general note: Time-resolved FRET reads energy transfer from a long-lived donor to a nearby acceptor.

As usually defined, the EC50 is the concentration at which the effect is half-maximal. A higher EC50 goes with lower potency in that assay.

With `Cc1cc(OCC2CCS(=O)(=O)CC2)cc(C)c1-c1c(C#N)ccc2c1CC[C@H]2Oc1ccc([C@H]2C[C@@H]2C(=O)O)cc1` [Example 35], the EC50 stood at 28 nM.

The compound `Cc1cc(O[C@@H]2CCN(S(C)(=O)=O)C2)cc(C)c1-c1c(C#N)ccc2c1CC[C@H]2Oc1ccc([C@H]2C[C@@H]2C(=O)O)cc1` [Example 37] returned an EC50 of 32 nM.

In turn, `Cc1cc(OC2CCOCC2)cc(C)c1-c1c(C#N)ccc2c1CC[C@H]2Oc1ccc([C@H]2C[C@@H]2C(=O)O)cc1` [Example 38, (1S,2S)-2-(4-{(R)-5-Cyano-4-[2,6-dimethyl-4-(tetrahydro-pyran-4-yloxy)-phenyl]-indan-1-yloxy}-phenyl)-cyclopropane-carboxylic acid] registered an EC50 of 40 nM.

In the case of `Cc1cc(OCC2(O)CCS(=O)(=O)CC2)cc(C)c1-c1ccc(F)c2c1CC[C@H]2Oc1ccc([C@H]2C[C@@H]2C(=O)O)cc1` [Example 39], the 50% effective concentration (EC50) came out at 6 nM.

The compound `Cn1ncc2cccc(-c3ccc(F)c4c3CC[C@H]4Oc3ccc([C@H]4C[C@@H]4C(=O)O)cc3)c21` [Example 40] registered an EC50 of 2 nM.

In turn, `Cc1cc(-c2nc(C)n(CC(C)(C)O)n2)cc(C)c1-c1ccc(F)c2c1CC[C@H]2Oc1ccc([C@H]2C[C@@H]2C(=O)O)cc1` [Example 41, (1S,2S)-2-[4-((R)-7-Fluoro-4-{4-[1-(2-hydroxy-2-methyl-propyl)-5-methyl-1H-[1,2,4]triazol-3-yl]-2,6-dimethyl-phenyl}-indan-1-yloxy)-phenyl]-cyclopropanecarboxylic acid] returned a 50% effective concentration (EC50) of 2 nM.

Take `Cc1cc(-c2nc(C)n(C)n2)cc(C)c1-c1ccc(F)c2c1CC[C@H]2Oc1ccc([C@H]2C[C@@H]2C(=O)O)cc1` [Example 42, (1S,2S)-2-(4-{(R)-4-[4-(1,5-Dimethyl-1H-[1,2,4]triazol-3-yl)-2,6-dimethyl-phenyl]-7-fluoro-indan-1-yloxy}-phenyl)-cyclopropanecarboxylic acid]: the midpoint of the response, the EC50, lay at 1 nM.

The compound `Cc1cc(-c2nnn(CC(C)(C)O)n2)cc(C)c1-c1ccc(F)c2c1CC[C@H]2Oc1ccc([C@H]2C[C@@H]2C(=O)O)cc1` [Example 43, (1S,2S)-2-[4-((R)-7-Fluoro-4-{4-[2-(2-hydroxy-2-methyl-propyl)-2H-tetrazol-5-yl]-2,6-dimethyl-phenyl}-indan-1-yloxy)-phenyl]-cyclopropanecarboxylic acid] returned a concentration for a half-maximal effect (EC50) of 3 nM.

For `Cc1cc(-c2nnnn2C)cc(C)c1-c1ccc(F)c2c1CC[C@H]2Oc1ccc([C@H]2C[C@@H]2C(=O)O)cc1` [Example 44], the EC50 came to 12 nM.

`Cc1cc(-c2nnn(C)n2)cc(C)c1-c1ccc(F)c2c1CC[C@H]2Oc1ccc([C@H]2C[C@@H]2C(=O)O)cc1` [Example 45] had a concentration giving a half-maximal response (EC50) of 2 nM.

Turning to `O=C(O)[C@H]1C[C@@H]1c1ccc(O[C@@H]2CCc3c(-c4cncc5ccccc45)ccc(F)c32)cc1` [Example 46, (1S,2S)-2-(4-((1R)-7-fluoro-4-(isoquinolin-4-yl)-2,3-dihydro-1H-inden-1-yloxy)phenyl)cyclo-propanecarboxylic acid], the EC50 is 6 nM.

Regarding `N#Cc1sccc1-c1ccc(F)c2c1CC[C@H]2Oc1ccc([C@H]2C[C@@H]2C(=O)O)cc1` [Example 47], the EC50 was 191 nM.

`O=C(O)[C@H]1C[C@@H]1c1ccc(O[C@@H]2CCc3c(-c4cccc5ncccc45)ccc(F)c32)cc1` [Example 48, (1S,2S)-2-(4-((1R)-7-fluoro-4-(quinolin-5-yl)-2,3-dihydro-1H-inden-1-yloxy)phenyl)cyclo-propanecarboxylic acid]: the concentration for a half-maximal effect (EC50) came to 6 nM.

For `O=C(O)[C@H]1C[C@@H]1c1ccc(O[C@@H]2CCc3c(-c4cccc5cnccc45)ccc(F)c32)cc1` [Example 49, (1S,2S)-2-(4-((1R)-7-fluoro-4-(isoquinolin-5-yl)-2,3-dihydro-1H-inden-1-yloxy)phenyl)cyclo-propanecarboxylic acid], a half-maximal response (EC50) required 5 nM.

On to `O=C(O)[C@H]1C[C@@H]1c1ccc(O[C@@H]2CCc3c(-c4ccnc5ccccc45)ccc(F)c32)cc1` [Example 50], for which a half-maximal effect (EC50) was put at 11 nM.

In turn, `COc1cccnc1-c1ccc(F)c2c1CC[C@H]2Oc1ccc([C@H]2C[C@@H]2C(=O)O)cc1` [Example 51] gave a concentration for a half-maximal effect (EC50) of 569 nM.

On to `O=C(O)[C@H]1C[C@@H]1c1ccc(O[C@@H]2CCc3c(-c4ccncc4C(F)(F)F)ccc(F)c32)cc1` [Example 52, (1S,2S)-2-(4-((1R)-7-fluoro-4-(3-(trifluoromethyl)pyridin-4-yl)-2,3-dihydro-1H-inden-1-yloxy)phenyl)cyclopropanecarb oxylic acid], for which the concentration giving a half-maximal response (EC50) stood at 38 nM.

Take `Cn1ccc2c(-c3ccc(F)c4c3CC[C@H]4Oc3ccc([C@H]4C[C@@H]4C(=O)O)cc3)cccc21` [Example 53]: the EC50 was 13 nM.

On to `Cc1c(C#N)cccc1-c1ccc(F)c2c1CC[C@H]2Oc1ccc([C@H]2C[C@@H]2C(=O)O)cc1` [Example 54], for which the midpoint of the response, the EC50, lay at 5 nM.

For `N#Cc1ncccc1-c1ccc(F)c2c1CC[C@H]2Oc1ccc([C@H]2C[C@@H]2C(=O)O)cc1` [Example 55], a half-maximal effect (EC50) was put at 75 nM.

`Cc1nn(C)cc1-c1ccc(F)c2c1CC[C@H]2Oc1ccc([C@H]2C[C@@H]2C(=O)O)cc1` [Example 56, (1S,2S)-2-(4-((1R)-4-(1,3-dimethyl-1H-pyrazol-4-yl)-7-fluoro-2,3-dihydro-1H-inden-1-yloxy)phenyl)cyclopropanecarb oxylic acid] displayed a concentration for a half-maximal effect (EC50) of 224 nM.

On to `Cc1ncc(-c2ccc(F)c3c2CC[C@H]3Oc2ccc([C@H]3C[C@@H]3C(=O)O)cc2)n1C` [Example 57, (1S,2S)-2-(4-((1R)-4-(1,2-dimethyl-1H-imidazol-5-yl)-7-fluoro-2,3-dihydro-1H-inden-1-yloxy)phenyl)cyclopropanecarb oxylic acid], for which the midpoint of the response, the EC50, lay at 1400 nM.

With `Cc1ccc2c(cnn2C)c1-c1ccc(F)c2c1CC[C@H]2Oc1ccc([C@H]2C[C@@H]2C(=O)O)cc1` [Example 58, (1S,2S)-2-(4-((1R)-4-(1,5-dimethyl-1H-indazol-4-yl)-7-fluoro-2,3-dihydro-1H-inden-1-yloxy)phenyl)cyclopropanecarb oxylic acid], it took 4 nM to reach a half-maximal effect (EC50).

For `Cn1ncc2c(-c3ccc(F)c4c3CC[C@H]4Oc3ccc([C@H]4C[C@@H]4C(=O)O)cc3)cccc21` [Example 59], the midpoint of the response, the EC50, lay at 17 nM.

In turn, `Cn1ccc2cccc(-c3ccc(F)c4c3CC[C@H]4Oc3ccc([C@H]4C[C@@H]4C(=O)O)cc3)c21` [Example 60] registered a concentration for a half-maximal effect (EC50) of 3 nM.

`O=C(O)[C@H]1C[C@@H]1c1ccc(O[C@@H]2CCc3c(-c4ccccc4-c4cocn4)ccc(F)c32)cc1` [Example 61, (1S,2S)-2-(4-((1R)-7-fluoro-4-(2-(oxazol-4-yl)phenyl)-2,3-dihydro-1H-inden-1-yloxy)-phenyl)cyclopropanecarboxylic acid]: a half-maximal response (EC50) required 28 nM.

`O=C(O)[C@H]1C[C@@H]1c1ccc(O[C@@H]2CCc3c(-c4ccccc4-c4cnco4)ccc(F)c32)cc1` [Example 62] displayed a 50% effective concentration (EC50) of 29 nM.

Regarding `O=C(O)C1CC1c1ccc(OC2CCc3c2ccc(C(F)(F)F)c3-c2ccc(OCC3(O)CCOCC3)cc2)cc1` (centres unmarked) [Example 63], the half-maximal effective concentration (EC50) was 7 nM.

As for `Cc1nc(-c2ccc(-c3c(C(F)(F)F)ccc4c3CC[C@H]4Oc3ccc([C@H]4C[C@@H]4C(=O)O)cc3)cc2)no1` [Example 64, (1S,2S)-2-(4-{(R)-4-[4-(5-Methyl-[1,2,4}oxadiazol-3-yl)-phenyl]-5-trifluoromethyl-indan-1-yloxy}-phenyl)-cyclopropanecarboxylic acid], the EC50 stood at 3 nM.
